Laboratory results from US6989270B1, “Using polyamide nucleic acid oligomers to engender a biological response” (Mayo Foundation for Medical Education and Research, priority 1997, dated 2006).

How the values were obtained:
[1] = system: neurotensin receptor-1 (NTR1); assay: Hot plate test of NT-mediated anti-nociception in PNA-treated rats; type: in vivo, rat
Description: Under an Institutional Animal Care and Use Committee approved protocol and under sterile conditions male Sprague-Dawley rats (180-200 g) were stereotaxically implanted with stainless steel guide cannulae (26 gauge) into the PAG under sodium pentobarbital anesthesia (50 mg/kg, i.p.) as described in detail elsewhere (Jensen T. S. and Yaksh T. L., Brain Res. 372:301-312 (1986) and Al-Rodhan N.R.F., Brain Res. 557:227-235 (1991)). The coordinates used for PAG cannulations are -5.6 mm posterior from bregma, 1.0 mm lateral from bregma, and 5.5 mm down from the dura. The guide cannula was pre-measured to be 5.5 mm (Plastics One, Roanoke, Va.) and the internal cannula was ordered to fit below the pedestal with a 2.0 mm projection. The guide cannula was then fixed to the skull using a stainless steel screw (⅛ inch) and cranioplastic cement. A stainless steel stilette was then placed in each guide to keep it patent and free of debris. Immediately after surgery, the animals were allowed to recover before returning them to an individual housing cage. All injections began 5-7 days after surgery.
NTR1-PNA oligomers were injected, using a Hamilton digital syringe, into the PAG through the internal cannula, which extended 2 mm below the guide tip. The internal cannula was connected with a length of polyethylene tubing (PE-20) filled with saline solution. A small air bubble was introduced into the tubing to separate the saline from a solution containing 1.3 nmol of NTR1-PNA oligomers in artificial cerebral-spinal fluid (ACSF). The volume of the solution containing the NTR1-PNA oligomers was about 1.0 μl. The bubble was used to confirm the movement of this solution through the polyethylene tubing.
NTR1-PNA oligomers were injected into the PAG of each rat three times, on days -4, -2, and 0. Controls included rats receiving no injections, rats receiving injections of ACSF only, and rats receiving PNA oligomers having sequence specificity for an unrelated polypeptide, the mu-1 morphine receptor (MU1R). The sequence of MU1R-PNA is 5′-[…]-3′ (SEQ ID NO: 2).
The injection of NT in the PAG of rats produces a potent anti-nociceptive response as well as hypothermia. These responses are mediated by specific NT receptors and are not inhibited by naloxone. A very sensitive and reliable hot plate test was used to measure the anti-nociceptive effects of NT (Al-Rodhan N.R.F., Brain Res. 557:227-235 (1991)).
NTR1-PNA, MU1R-PNA, and ACSF treated as well as untreated rats were analyzed using the hot plate test for NT. One day after the last treatment, each rat was analyzed as follows. Fifteen minutes prior to testing, a pre-drug latency measurement was made by placing the rat on a hot plate maintained at a temperature of 52±0.15° C. and recording the time elapsed before the rat licked either of its hindpaws. In addition, the temperature of the rat was taken using a thermister probe inserted 3 cm in the rectum to determine the pre-drug body temperature (BT). After making these measurement, an appropriate dose of NT (18 nmol) at a volume of about 0.5 ul was administered into the PAG as described above. Thirty minutes after administering NT, the rat was again placed on a hot plate maintained at a temperature of 52±0.15° C. and the latency between the time the rat was placed on the surface and the time it licked either of its hindpaws was measured. […] Hot plate tests were scored as the percent of maximum possible effect (% MPE) and calculated using the following equation: % MPE=[(post-drug latency−pre-drug latency)/(cut-off−pre-drug latency)]×100; where the cut-off is 30 seconds. […] This average for untreated control rats was used to set the baseline MPE value to 100. Immediately after the 30 second hot plate test, BT was taken to measure NT-induced hypothermia using a thermister probe inserted 3 cm in the rectum. […] All test situations were compared to these baseline values derived from NT responsive untreated controls. […]

[2] = system: neurotensin receptor-1 (NTR1); assay: NT-induced hypothermia (rectal body temperature) in PNA-treated rats; type: in vivo, rat; details: for body temperature change in response to NT: NT 18 nmol 24 hours later
Description: NTR1-PNA, MU1R-PNA, and ACSF treated as well as untreated rats were analyzed using the hot plate test for NT. One day after the last treatment, each rat was analyzed as follows. Fifteen minutes prior to testing, a pre-drug latency measurement was made by placing the rat on a hot plate maintained at a temperature of 52±0.15° C. and recording the time elapsed before the rat licked either of its hindpaws. In addition, the temperature of the rat was taken using a thermister probe inserted 3 cm in the rectum to determine the pre-drug body temperature (BT). After making these measurement, an appropriate dose of NT (18 nmol) at a volume of about 0.5 ul was administered into the PAG as described above. Thirty minutes after administering NT, the rat was again placed on a hot plate maintained at a temperature of 52±0.15° C. and the latency between the time the rat was placed on the surface and the time it licked either of its hindpaws was measured. […] Hot plate tests were scored as the percent of maximum possible effect (% MPE) and calculated using the following equation: % MPE=[(post-drug latency−pre-drug latency)/(cut-off−pre-drug latency)]×100; where the cut-off is 30 seconds. […] This average for untreated control rats was used to set the baseline MPE value to 100. Immediately after the 30 second hot plate test, BT was taken to measure NT-induced hypothermia using a thermister probe inserted 3 cm in the rectum. […] All test situations were compared to these baseline values derived from NT responsive untreated controls.
(§1) AS-NTR1-PNA, mismatch-AS-NTR1-PNA, and MU1R-PNA were injected intraperitoneally (10 mg/kg) independently, into separate groups of male Sprague-Dawley rats (Harlan, Prattville, Ala.). The sense-NTR1-PNA oligomer, however, was microinjected directly into the periaqueductal gray (PAG; 5 μg), the major area in the brain involved with perception of pain (nociception). […] Thirty minutes after receiving NT, animals were scored for anti-nociception (hot plate at 52° C.) and hypothermia (rectal probe). Again, anti-nociception scores were calculated as percent of maximum possible effect (% MPE) with the following equation: % MPE=[(post-drug latency time minus pre-drug latency time)/(cut-off time minus pre-drug latency time)]×100; where the cut-off time (i.e., the time when the animal was removed from the device) was 30 seconds for a hot plate test and 12 seconds for a tail flick test. Statistical analysis was done using the rank sum test.

[3] = system: mu-1 receptor (MU1R); assay: Tail flick test of MOR-mediated anti-nociception in PNA-treated rats; type: in vivo, rat
Description: The injection of MOR into rats produces a potent anti-nociceptive response. This response is mediated by specific MOR receptors and is inhibited by naloxone. A very sensitive and reliable tail flick test was devised and used to measure the anti-nociceptive effects of MOR (D'Amour F. E. and Smith D. L, J. Pharm. Exp. Therap. 72:74-79 (1941)).
MU1R-PNA, NTR1-PNA, and ACSF treated as well as untreated rats were analyzed using the MOR-specific tail flick test. One day after the last treatment, each rat was analyzed as follows. Thirty minutes prior to testing, a pre-drug latency measurement was made by placing the tail of the restrained rat in oil maintained at a temperature of 60° C. and recording the time elapsed before the rat flicked its tail. After making this measurement, an appropriate dose of MOR (5 mg/kg of body weight) at a volume of about 200 μl was injected i.p. Thirty minutes after administering MOR, the restrained rat's tail was again placed in the oil maintained at 60° C. and the latency between the time the tail was placed in the oil and the time the rat flicked its tail was measured. […] Tail flick tests were scored as the percent of MPE and calculated using the following equation: % MPE=[(post-drug latency−pre-drug latency)/(cut-off−pre-drug latency)]×100; where the cut-off is 12 seconds. […] This average for untreated control rats was used to set the baseline A MPE value to 100. All test situations were compared to this baseline response value derived from MOR responsive untreated controls. To test the significance, data were analyzed using the Student's t-test with p<0.05 being considered significant.
as §1

[4] = system: plasma membrane serotonin transporter; assay: Hyperactivity (activity chamber) after tranylcypromine challenge; type: in vivo, rat; details: 5 mg/kg i.p., then 15 mg/kg TCP 48 hours later
Description: To test the ability of SERT-PNA oligomers to engender a biological response, e.g., a reduction of plasma membrane serotonin transporter expression, SERT-PNA oligomers were administered to rats with and without tranylcypromine (TCP), a MAO inhibitor.
A solution containing 5 mg/kg of SERT-PNA oligomers in saline was injected directly into the peritoneal cavity of male Sprague-Dawley rats (200-250 g). Each rat received a single injection on day zero and the volume injected was about 200 μl. Controls included rats receiving injections of saline only and injections of TCP only.
To monitor hyperactivity, an Opto-Varimex-Minor activity chamber (Columbus Instruments, Columbus, Ohio) was used. Briefly, this activity chamber records the number of times an animal disrupts an infrared beam while in a 42 cm by 42 cm chamber. Other signs of hyperactivity were noted by gross observation.

[5] = system: NTR1 mRNA; assay: Quantitative RT-PCR of NTR1 mRNA relative to GAPDH; type: in vivo; details: treated intracranially, 5 μg; at 8 hours
Description: (§2) Messenger RNA (mRNA) levels for NTR1, MU1R, and GAPDH were measured in control and PNA-treated animals. Briefly, total RNA was isolated from approximately 20 mg of tissue using the S.N.A.P. total RNA Isolation Kit (Invitrogen, Carlsbad, Calif.). Quantitative RT-PCR was performed on treated and control animals using GAPDH as an internal standard and PCR fragments of the human NTR and of a GAPDH deletion mutant as exogenous standards. First strand cDNA was synthesized from approximately 500 ng of total RNA using the cDNA Cycle Kit (Invitrogen, Carlsbad, Calif.). PCR was performed on a GeneAmp PCR System 9600 (Perkin Elmer, Norwalk, Conn.) using end-labeled primer and TAq DNA Polymerase (Gibco-BRL, Gaithersburg, Md.). Products were separated on a 5% acrylamide gel containing 7 M urea, and detected using a Storm860 Phosphoimager (Molecular Dynamics, Sunnyvale, Calif.). Data were analyzed using ImageQuant Software (Molecular Dynamics, Sunnyvale Calif.). To control for any diurnal mRNA level fluctuations that may occur, the PNA injection time was controlled such that the tissue harvest time was identical in each animal group.

[6] = system: MU1R mRNA; assay: Quantitative RT-PCR of MU1R mRNA relative to GAPDH; type: in vivo; details: treated intracranially, 5 μg
Description: as §2

[7] = 10 mg/kg intraperitoneally, NT 18 nmol into PAG 24 hours later
[8] = PNA injected into PAG on days -4, -2, 0, NT 18 nmol into PAG

MU1R-PNA: 14-mer antisense PNA oligomer to mu-1 receptor 5′ non-coding region, 5′-CAGCCTCTTCCTCT-3′ (SEQ ID NO: 2) (all peptide nucleic acid (PNA); further chemistry not fully specified)
anti-nociception score (hot plate) after NT [1, 7]: 82 % MPE
MPE (hot plate) response to NT challenge as percent of baseline response [1, 8]: indistinguishable from the baseline responses
BT (hypothermia) response to NT challenge as percent of baseline response [2, 8]: indistinguishable from the baseline responses
time until which MOR-mediated anti-nociception remained significantly reduced ([3]; PNA injected into PAG on days -4, -2, 0): day twelve
responsiveness to MOR challenge (tail flick) ([3]; one day after single i.p. injection of 3 mg/kg): unable to respond to MOR challenge

SERT-PNA: 12-mer antisense PNA oligomer to rat plasma membrane serotonin transporter, 5′-GCCAGATGTTGC-3′ (SEQ ID NO: 3) (all peptide nucleic acid (PNA); further chemistry not fully specified)
hyperactivity after TCP [4]: extreme hyperactivity
time to extreme hyperactivity after TCP treatment [4]: ≤ 10 min

mismatch-AS-NTR1-PNA: PNA oligomer like AS-NTR1-PNA with a mismatch at every third base pair, 5′-TATGGCACAGAC-3′ (SEQ ID NO:12) (all peptide nucleic acid (PNA); further chemistry not fully specified)
anti-nociception score (hot plate) after NT [1, 7]: 60 % MPE
body temperature change in response to NT ([2]; 10 mg/kg intraperitoneally): −1.3 °C

sense-NTR1-PNA: sense PNA oligomer for NTR1, complementary to AS-NTR1-PNA, 5′-GTTTGAGCAATG-3′ (SEQ ID NO:13) (all peptide nucleic acid (PNA); sense control PNA, further chemistry not fully specified)
anti-nociception score (hot plate) after NT [1, 7]: 5.4±5.4 % MPE
anti-nociception score (hot plate) after NT ([1]; PNA microinjected into PAG (printed 5% g), NT 18 nmol 24 hours later): 14 % MPE
body temperature change in response to NT ([2]; 10 mg/kg intraperitoneally): −0.45±0.15 °C
body temperature change in response to NT ([2]; PNA into PAG, 5 μg): −0.5 °C
reduction in the NTR1/GAPDH ratio of mRNA [5]: 50%
change in MU1R/GAPDH ratio of mRNA [6]: no change
